Data reported in PubChem BioAssay AID1963986 (Molecular Pharmacology Branch, DTP, NCI, 2024).
Values belong to the compound of their own block, whether it stands above or below them.

Test system: 171881-019-R-J1-PDC tumor spheroid viability
Assay: Anticancer human tumor 171881-019-R-J1-PDC patient-derived invasive breast carcinoma cell line growth inhibition [PI3K]
Conditions: spheroids with HUVEC and MSC; for IC50: curve of first compound; for viability, T/C: stronger effect = lower value
Method in brief: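 We assembled tumor spheroids that included a stromal compartment of HUVEC and MSCs, then exposed them to targeted agents alone and together with PI3K pathway inhibitors. Concentration series descended by half-log from clinically achievable Cmax levels. Viability served as the endpoint.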
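Also: spheroids exposed to compound for 7 days before viability read.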
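For viability, T/C in this document: 100% = DMSO vehicle-treated spheroids.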

IC50 (second compound 0.0316 µM): 0.628 µM | IC50 (second compound 0.1 µM): 0.664 µM | IC50 (second compound 0.316 µM): 0.547 µM | IC50 (second compound 1 µM): 0.423 µM | IC50 (second compound 3.16 µM): 0.143 µM | IC50 (second compound 10 µM): < 0.00949 µM
SMILES: Cn1cnc2c(F)c(Nc3ccc(Br)cc3Cl)c(C(=O)NOCCO)cc21 + CC(Nc1ncnc2nc[nH]c12)c1cc2cccc(Cl)c2c(=O)n1-c1ccccc1
viability, T/C (second compound 0.0316 µM, first compound 0.00949 µM): 93.5% | viability, T/C (second compound 0.0316 µM, first compound 0.03 µM): 84% | viability, T/C (second compound 0.0316 µM, first compound 0.0949 µM): 89.2% | viability, T/C (second compound 0.0316 µM, first compound 0.3 µM): 63.5% | viability, T/C (second compound 0.0316 µM, first compound 0.949 µM): 42.2% | viability, T/C (second compound 0.0316 µM, first compound 3 µM): 19.5% | viability, T/C (second compound 0.1 µM, first compound 0.00949 µM): 87.3% | viability, T/C (second compound 0.1 µM, first compound 0.03 µM): 84.7% | viability, T/C (second compound 0.1 µM, first compound 0.0949 µM): 75% | viability, T/C (second compound 0.1 µM, first compound 0.3 µM): 70.8% | viability, T/C (second compound 0.1 µM, first compound 0.949 µM): 40.7% | viability, T/C (second compound 0.1 µM, first compound 3 µM): 18.3% | viability, T/C (second compound 0.316 µM, first compound 0.00949 µM): 96.6% | viability, T/C (second compound 0.316 µM, first compound 0.03 µM): 91% | viability, T/C (second compound 0.316 µM, first compound 0.0949 µM): 77.2% | viability, T/C (second compound 0.316 µM, first compound 0.3 µM): 63.2% | viability, T/C (second compound 0.316 µM, first compound 0.949 µM): 38.6% | viability, T/C (second compound 0.316 µM, first compound 3 µM): 17.5% | viability, T/C (second compound 1 µM, first compound 0.00949 µM): 88.9% | viability, T/C (second compound 1 µM, first compound 0.03 µM): 74.4% | viability, T/C (second compound 1 µM, first compound 0.0949 µM): 71.8% | viability, T/C (second compound 1 µM, first compound 0.3 µM): 57.9% | viability, T/C (second compound 1 µM, first compound 0.949 µM): 34.6% | viability, T/C (second compound 1 µM, first compound 3 µM): 15.4% | viability, T/C (second compound 3.16 µM, first compound 0.00949 µM): 74.4% | viability, T/C (second compound 3.16 µM, first compound 0.03 µM): 65.3% | viability, T/C (second compound 3.16 µM, first compound 0.0949 µM): 55.9% | viability, T/C (second compound 3.16 µM, first compound 0.3 µM): 40.5% | viability, T/C (second compound 3.16 µM, first compound 0.949 µM): 25.8% | viability, T/C (second compound 3.16 µM, first compound 3 µM): 9.87% | viability, T/C (second compound 10 µM, first compound 0.00949 µM): 46.2% | viability, T/C (second compound 10 µM, first compound 0.03 µM): 44.2% | viability, T/C (second compound 10 µM, first compound 0.0949 µM): 37.8% | viability, T/C (second compound 10 µM, first compound 0.3 µM): 31.2% | viability, T/C (second compound 10 µM, first compound 0.949 µM): 14.9% | viability, T/C (second compound 10 µM, first compound 3 µM): 4.91%

IC50 (second compound 0.0316 µM): 0.144 µM | IC50 (second compound 0.1 µM): 0.174 µM | IC50 (second compound 0.316 µM): 0.164 µM | IC50 (second compound 1 µM): 0.15 µM | IC50 (second compound 3.16 µM): 0.125 µM | IC50 (second compound 10 µM): 0.0707 µM
SMILES: Cn1ncc(Cl)c1-c1cc(C(=O)NC(CN)Cc2cccc(F)c2)sc1Cl (centres undefined) + CC(Nc1ncnc2nc[nH]c12)c1cc2cccc(Cl)c2c(=O)n1-c1ccccc1
viability, T/C (second compound 0.0316 µM, first compound 0.0316 µM): 88.2% | viability, T/C (second compound 0.0316 µM, first compound 0.1 µM): 58.2% | viability, T/C (second compound 0.0316 µM, first compound 0.316 µM): 32.5% | viability, T/C (second compound 0.0316 µM, first compound 1 µM): 20.9% | viability, T/C (second compound 0.0316 µM, first compound 3.16 µM): 13.4% | viability, T/C (second compound 0.0316 µM, first compound 10 µM): 3.64% | viability, T/C (second compound 0.1 µM, first compound 0.0316 µM): 81.7% | viability, T/C (second compound 0.1 µM, first compound 0.1 µM): 64.9% | viability, T/C (second compound 0.1 µM, first compound 0.316 µM): 33.2% | viability, T/C (second compound 0.1 µM, first compound 1 µM): 20.6% | viability, T/C (second compound 0.1 µM, first compound 3.16 µM): 13.3% | viability, T/C (second compound 0.1 µM, first compound 10 µM): 6.15% | viability, T/C (second compound 0.316 µM, first compound 0.0316 µM): 86.4% | viability, T/C (second compound 0.316 µM, first compound 0.1 µM): 62.4% | viability, T/C (second compound 0.316 µM, first compound 0.316 µM): 32.8% | viability, T/C (second compound 0.316 µM, first compound 1 µM): 21.4% | viability, T/C (second compound 0.316 µM, first compound 3.16 µM): 13.1% | viability, T/C (second compound 0.316 µM, first compound 10 µM): 4.15% | viability, T/C (second compound 1 µM, first compound 0.0316 µM): 72.2% | viability, T/C (second compound 1 µM, first compound 0.1 µM): 59.6% | viability, T/C (second compound 1 µM, first compound 0.316 µM): 33.7% | viability, T/C (second compound 1 µM, first compound 1 µM): 18.5% | viability, T/C (second compound 1 µM, first compound 3.16 µM): 11.6% | viability, T/C (second compound 1 µM, first compound 10 µM): 3.79% | viability, T/C (second compound 3.16 µM, first compound 0.0316 µM): 78.5% | viability, T/C (second compound 3.16 µM, first compound 0.1 µM): 55.3% | viability, T/C (second compound 3.16 µM, first compound 0.316 µM): 30.4% | viability, T/C (second compound 3.16 µM, first compound 1 µM): 17.1% | viability, T/C (second compound 3.16 µM, first compound 3.16 µM): 9% | viability, T/C (second compound 3.16 µM, first compound 10 µM): 2.75% | viability, T/C (second compound 10 µM, first compound 0.0316 µM): 62.5% | viability, T/C (second compound 10 µM, first compound 0.1 µM): 44.8% | viability, T/C (second compound 10 µM, first compound 0.316 µM): 25.2% | viability, T/C (second compound 10 µM, first compound 1 µM): 12.3% | viability, T/C (second compound 10 µM, first compound 3.16 µM): 6.81% | viability, T/C (second compound 10 µM, first compound 10 µM): 2.88%
